According to paper PMC6211316, “Synthesis and biological evaluation of 3-arylcoumarin derivatives as potential anti-diabetic agents” (Journal of Enzyme Inhibition and Medicinal Chemistry, 2018):

What was measured:
[1] = DPPH free radical scavenging; conditions: mean ± SD (n = 3)
Outline: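 Sample solutions at various concentrations mixed 1:1 with DPPH (0.04 mg/mL) and reacted 30 min at room temperature; absorbance read at 517 nm against ethanol blank, corrected for sample absorbance. Scavenging % calculated versus DPPH alone, triplicate measurements, IC50 derived.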

STZ-diabetic mice = assay: Acute hypoglycemic assay in STZ-diabetic mice; type: in vivo; conditions: STZ-diabetics mice
Procedure: Type II diabetes mellitus was induced in mice by a single intraperitoneal injection of freshly prepared STZ (Sigma Aldrich) dissolved in 0.1M citrate buffer, pH 4.5, in a volume of 110 mg/kg of bw. After 7 days of STZ administration, blood glucose levels of each mouse were determined. Mice with blood glucose levels higher than 11 mM were considered diabetic and were included in the study.
STZ-induced diabetic mice and normal mice were placed in single cages with wire-net floors and deprived of food for 12 h before experimentation but allowed free access to tap water throughout. The compounds (at the doses of 10, 30, and 100 mg/kg of bw) were suspended in 0.05% Tween-80 in saline solution. Glibenclamide (10 mg/kg of bw) was suspended in the same vehicle. The target compounds were freshly prepared immediately before experimentation and administered by the intragastrical route at the doses of 10 ml/kg of bw. Control mice received only the vehicle (0.05% Tween-80 in saline solution) by the same route. Blood glucose levels were measured at 0, 1.5, 3, 5, 7, and 9 h after drugs administration.

With `Cc1ccc(-c2cc3c(O)cc(O)cc3oc2=O)cc1` [Compound 25, 5,7-Dihydroxy-3-(4-methylphenyl)-coumarin] as the compound, how does the IC50 [1] read?
Its IC50 is 603 ± 7.42 µM.

What about the Blood glucose concentration (STZ-diabetic mice; 10 mg/kg of bw per os, 0h) of the same compound?
The Blood glucose concentration was 19.7 ± 6.1 mM.

What about the “% Variation of glycemia” value (STZ-diabetic mice; 10 mg/kg of bw per os, 1.5h) of the same compound?
The value was “(−20.30) %”.

And the Blood glucose concentration (STZ-diabetic mice; 10 mg/kg of bw per os, 1.5h)?
The Blood glucose concentration was 15.7 ± 6.6 mM.

What about the “% Variation of glycemia” value (STZ-diabetic mice; 10 mg/kg of bw per os, 3h) of the same compound?
The value was “(−24.37) %”.

What about the Blood glucose concentration (STZ-diabetic mice; 10 mg/kg of bw per os, 3h) of the same compound?
The Blood glucose concentration was 14.9 ± 6.5 mM.

What about the “% Variation of glycemia” value (STZ-diabetic mice; 10 mg/kg of bw per os, 5h) of the same compound?
The value was “(−50.76) %”.

And the Blood glucose concentration (STZ-diabetic mice; 10 mg/kg of bw per os, 5h)?
The Blood glucose concentration was 9.7 ± 3.4 mM.

And the “% Variation of glycemia” value (STZ-diabetic mice; 10 mg/kg of bw per os, 7h)?
The value was “(−64.97) %”.

What about the Blood glucose concentration (STZ-diabetic mice; 10 mg/kg of bw per os, 7h) of the same compound?
The Blood glucose concentration was 6.9 ± 3.9 mM.

And the “% Variation of glycemia” value (STZ-diabetic mice; 10 mg/kg of bw per os, 9h)?
Its value is “(−56.85) %”.

What about the Blood glucose concentration (STZ-diabetic mice; 10 mg/kg of bw per os, 9h) of the same compound?
Its Blood glucose concentration is 8.5 ± 2.2 mM.

What about the Blood glucose concentration (STZ-diabetic mice; 30 mg/kg of bw per os, 0h) of the same compound?
The Blood glucose concentration was 24.8 ± 4.9 mM.

What about the “% Variation of glycemia” value (STZ-diabetic mice; 30 mg/kg of bw per os, 1.5h) of the same compound?
Its value is “(−12.50) %”.

What about the Blood glucose concentration (STZ-diabetic mice; 30 mg/kg of bw per os, 1.5h) of the same compound?
The Blood glucose concentration was 21.7 ± 3.9 mM.

What about the “% Variation of glycemia” value (STZ-diabetic mice; 30 mg/kg of bw per os, 3h) of the same compound?
The value was “(−36.23) %”.

And the Blood glucose concentration (STZ-diabetic mice; 30 mg/kg of bw per os, 3h)?
Its Blood glucose concentration is 15.8 ± 4.5 mM.

What about the “% Variation of glycemia” value (STZ-diabetic mice; 30 mg/kg of bw per os, 5h) of the same compound?
The value was “(−64.11) %”.

What about the Blood glucose concentration (STZ-diabetic mice; 30 mg/kg of bw per os, 5h) of the same compound?
Its Blood glucose concentration is 8.9 ± 6.3 mM.

What about the “% Variation of glycemia” value (STZ-diabetic mice; 30 mg/kg of bw per os, 7h) of the same compound?
Its value is “(−63.71) %”.

And the Blood glucose concentration (STZ-diabetic mice; 30 mg/kg of bw per os, 7h)?
Its Blood glucose concentration is 9.0 ± 4.8 mM.

And the “% Variation of glycemia” value (STZ-diabetic mice; 30 mg/kg of bw per os, 9h)?
The value was “(−64.11) %”.

What about the Blood glucose concentration (STZ-diabetic mice; 30 mg/kg of bw per os, 9h) of the same compound?
The Blood glucose concentration was 8.9 ± 3.8 mM.

And the Blood glucose concentration (STZ-diabetic mice; 100 mg/kg of bw per os, 0h)?
The Blood glucose concentration was 23.0 ± 4.8 mM.

And the “% Variation of glycemia” value (STZ-diabetic mice; 100 mg/kg of bw per os, 1.5h)?
The value was “(−20.44) %”.

What about the Blood glucose concentration (STZ-diabetic mice; 100 mg/kg of bw per os, 1.5h) of the same compound?
The Blood glucose concentration was 18.3 ± 3.5 mM.

And the “% Variation of glycemia” value (STZ-diabetic mice; 100 mg/kg of bw per os, 3h)?
Its value is “(−25.36) %”.

What about the Blood glucose concentration (STZ-diabetic mice; 100 mg/kg of bw per os, 3h) of the same compound?
The Blood glucose concentration was 17.2 ± 2.9 mM.

And the “% Variation of glycemia” value (STZ-diabetic mice; 100 mg/kg of bw per os, 5h)?
The value was “(−56.95) %”.

And the Blood glucose concentration (STZ-diabetic mice; 100 mg/kg of bw per os, 5h)?
Its Blood glucose concentration is 9.9 ± 2.7 mM.

What about the “% Variation of glycemia” value (STZ-diabetic mice; 100 mg/kg of bw per os, 7h) of the same compound?
The value was “(−64.78) %”.

What about the Blood glucose concentration (STZ-diabetic mice; 100 mg/kg of bw per os, 7h) of the same compound?
Its Blood glucose concentration is 8.1 ± 1.6 mM.

What about the “% Variation of glycemia” value (STZ-diabetic mice; 100 mg/kg of bw per os, 9h) of the same compound?
The value was “(−60.43) %”.

What about the Blood glucose concentration (STZ-diabetic mice; 100 mg/kg of bw per os, 9h) of the same compound?
Its Blood glucose concentration is 9.1 ± 2.3 mM.
